From ChEMBL document CHEMBL3137667, “[Drug-induced liver injury; fourteenth updated edition of the bibliographic database of liver injuries and related drugs]” (Gastroenterol Clin Biol, 2004)

What was measured:
[1] = Highest frequency of moderate liver toxicity observed during clinical trials, expressed as a percentage. [column '% BIOL' in source]; settings: human
[2] = Highest frequency of acute liver toxicity observed during clinical trials, expressed as a percentage. [column '% AIGUE' in source]; settings: human
[3] = Times to onset, minimal and maximal, observed in the indexed observations. [column 'DELAI' in source]; settings: human
[4] = human, serum
[5] = human, serum; remark: listed apart in the source
[6] = human
[7] = human; remark: listed apart in the source
[8] = human; remark: listed apart in the source
[9] = human, serum, 4383 h
[10] = human; remark: listed apart in the source
[11] = human; remark: listed apart in the source
[12] = human; remark: listed apart in the source
[13] = human; remark: listed apart in the source
[14] = human; remark: listed apart in the source
[15] = human; remark: listed apart in the source
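Wherever Hepatotoxicity (association with vascular disease) is given: count of indexed literature references reporting vascular liver injury in humans, e.g. peliosis hepatitis, hepatic veno-occlusive disease or Budd-Chiari syndrome.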
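Wherever Hepatotoxicity (benign tumour) is given: value is a count of indexed literature references citing a benign tumour confirmed by histopathology.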
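Wherever Hepatotoxicity (choleostasis) is given: human cholestatic liver injury, shown by histopathology or by peak ALT or AST elevation over alkaline phosphatase ratio below 2, value counts indexed literature reports.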
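Wherever Hepatotoxicity (chronic liver disease) is given: chronic liver injury confirmed by histopathology or persistently raised serum aminotransferase activity beyond 6 months, value given as the count of indexed literature references.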
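Wherever Hepatotoxicity (cirrhosis) is given: value is a count of indexed literature references reporting cirrhosis confirmed by histopathology.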
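Wherever Hepatotoxicity (cytolytic) is given: human cytolytic liver injury, shown by histopathology or by a ratio above 5 of peak ALT or AST elevation to alkaline phosphatase elevation, value counts indexed references.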
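Wherever Hepatotoxicity (granulomatous hepatitis) is given: value is a count of indexed literature references reporting granulomatous liver disease confirmed by histopathology.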
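Wherever Hepatotoxicity (malignant tumour) is given: malignant tumour confirmed by histopathology, value gives the count of indexed literature references reporting it.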
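Wherever Hepatotoxicity (severe hepatitis) is given: human clinical data: severe hepatitis, meaning potentially life-threatening liver failure or clinically observed cases, the value counts how many indexed literature references report it.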
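Wherever Hepatotoxicity (steatosis) is given: steatosis confirmed by histopathology, value is the count of indexed references.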

| SMILES | Hepatotoxicity (moderate) [1] | Hepatotoxicity (acute) [2] | Hepatotoxicity (time to onset) [3] | Hepatotoxicity (moderate) [4] | Hepatotoxicity (acute) [5] | Hepatotoxicity (cytolytic) [6] | Hepatotoxicity (choleostasis) [7] | Hepatotoxicity (severe hepatitis) [8] | Hepatotoxicity (chronic liver disease) [9] | Hepatotoxicity (cirrhosis) [10] | Hepatotoxicity (granulomatous hepatitis) [11] | Hepatotoxicity (association with vascular disease) [12] | Hepatotoxicity (steatosis) [13] | Hepatotoxicity (malignant tumour) [14] | Hepatotoxicity (benign tumour) [15] |
| --- | --- | --- | --- | --- | --- | --- | --- | --- | --- | --- | --- | --- | --- | --- | --- |
| C(=C\c1ccccc1)/CN1CCN(C(c2ccccc2)c2ccccc2)CC1 [CINNARIZINE] | 0% | 0% | 3 weeks - 7 weeks | 0 | 2 | 0 | 2 | 0 | 0 | 0 | 0 | 0 | 0 | 0 | 0 |
| COc1cc(N)c(Cl)cc1C(=O)NC1CCN(CCCOc2ccc(F)cc2)CC1OC (stereo not given) [CISAPRIDE] | 0% | 0% | 4 days | 2 | 1 | 1 | 0 | 0 | 0 | 0 | 0 | 0 | 0 | 0 | 0 |
| Nc1nc(Cl)nc2c1ncn2[C@H]1C[C@H](O)[C@@H](CO)O1 [CLADRIBINE] | 13% | 9.1% | 2 weeks - 6 months | 4 | 2 | 1 | 0 | 0 | 0 | 0 | 0 | 1 | 0 | 0 | 0 |
| CN1C(=O)CC(=O)N(c2ccccc2)c2cc(Cl)ccc21 [CLOBAZAM] | 2.1% | 0% | 1 week | 1 | 0 | 0 | 0 | 0 | 0 | 0 | 0 | 0 | 0 | 0 | 0 |
| CC(Cc1ccccc1)NCc1ccccc1Cl (stereo not given) [CLOBENZOREX] | 0% | 0% | 2 weeks | 0 | 1 | 1 | 0 | 0 | 0 | 0 | 0 | 0 | 0 | 0 | 0 |
| CCN(CC)CCOc1ccc(C(=C(Cl)c2ccccc2)c2ccccc2)cc1 [CLOMIPHENE] | 0% | 0% | 2 weeks - 8 years | 1 | 2 | 1 | 1 | 0 | 0 | 0 | 0 | 0 | 0 | 1 | 1 |
| Clc1ccccc1C(c1ccccc1)(c1ccccc1)n1ccnc1 [CLOTRIMAZOLE] | 40% | 0% | 17 days | 8 | 0 | 0 | 0 | 0 | 0 | 0 | 0 | 0 | 0 | 0 | 0 |
| C1CC1 [CYCLOPROPANE] | 0% | 0% | 1 day - 2 weeks | 0 | 3 | 3 | 0 | 2 | 0 | 0 | 0 | 0 | 0 | 0 | 0 |
| N[C@@H]1CON=C1O [CYCLOSERINE] | 13% | 5.4% | 11 weeks | 3 | 2 | 2 | 0 | 1 | 0 | 0 | 0 | 0 | 0 | 0 | 0 |
| Cc1c(O)c(=O)ccn1C [DEFERIPRONE] | 59.5% | 1.2% | 3 months | 8 | 1 | 1 | 0 | 0 | 0 | 0 | 0 | 0 | 0 | 0 | 0 |
| CC(=O)N(O)CCCCCNC(=O)CCC(=O)N(O)CCCCCNC(=O)CCC(=O)N(O)CCCCCN [DEFEROXAMINE] | 28% | 0% | 6 weeks | 1 | 1 | 1 | 0 | 1 | 0 | 0 | 0 | 0 | 0 | 0 | 0 |
| CNCCON=c1c2ccccc2ccc2ccccc12 [DEMEXIPTILINE] | 0% | 0% | 6 weeks | 0 | 1 | 1 | 1 | 0 | 0 | 0 | 0 | 0 | 0 | 0 | 0 |
| NC(=O)CC[C@@H]1NC(=O)[C@H](Cc2ccccc2)NC(=O)[C@H](Cc2ccc(O)cc2)NC(=O)CCSSC[C@@H](C(=O)N2CCC[C@H]2C(=O)N[C@H](CCCN=C(N)N)C(=O)NCC(N)=O)NC(=O)[C@H](CC(N)=O)NC1=O [DESMOPRESSIN] | 20% | 0% | 5 days - 4 weeks | 2 | 0 | 0 | 0 | 0 | 0 | 0 | 0 | 0 | 0 | 0 | 0 |
| CCN[C@@H](C)Cc1cccc(C(F)(F)F)c1 [DEXFENFLURAMINE] | 0% | 0% | 4 years | 0 | 0 | 0 | 0 | 0 | 0 | 1 | 0 | 0 | 0 | 0 | 0 |
| O=[As](O)(O)c1ccc(NCCNc2ccc([As](=O)(O)O)cc2)cc1 [DIFETARSONE] | 6% | 0% | 2 days - 3 weeks | 1 | 2 | 2 | 2 | 0 | 0 | 0 | 0 | 0 | 0 | 0 | 0 |
